The values that follow come from BindingDB's records for PubMed 10617681 (Dupont Pharmaceuticals, 2000).

Test [1] concerns the target 5-hydroxytryptamine receptor 2B (Homo sapiens, UniProt P41595).
For test [2], the target named is T1, 5-hydroxytryptamine receptor 2C (Homo sapiens, UniProt P28335).
T1 sequence (P28335 whole entry): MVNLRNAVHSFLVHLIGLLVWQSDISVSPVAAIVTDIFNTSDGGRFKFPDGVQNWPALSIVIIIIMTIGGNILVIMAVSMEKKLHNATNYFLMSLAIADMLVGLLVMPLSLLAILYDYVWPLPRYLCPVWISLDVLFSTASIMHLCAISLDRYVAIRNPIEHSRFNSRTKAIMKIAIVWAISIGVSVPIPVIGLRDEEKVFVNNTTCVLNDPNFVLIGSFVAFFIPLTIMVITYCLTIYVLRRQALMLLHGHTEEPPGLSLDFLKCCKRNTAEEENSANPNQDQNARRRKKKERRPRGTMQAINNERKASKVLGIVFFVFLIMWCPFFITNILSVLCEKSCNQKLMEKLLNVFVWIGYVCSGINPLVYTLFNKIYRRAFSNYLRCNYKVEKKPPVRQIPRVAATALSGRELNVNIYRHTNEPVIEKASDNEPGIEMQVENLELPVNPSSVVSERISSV

5-hydroxytryptamine receptor 2B, sequence (P41595 whole entry): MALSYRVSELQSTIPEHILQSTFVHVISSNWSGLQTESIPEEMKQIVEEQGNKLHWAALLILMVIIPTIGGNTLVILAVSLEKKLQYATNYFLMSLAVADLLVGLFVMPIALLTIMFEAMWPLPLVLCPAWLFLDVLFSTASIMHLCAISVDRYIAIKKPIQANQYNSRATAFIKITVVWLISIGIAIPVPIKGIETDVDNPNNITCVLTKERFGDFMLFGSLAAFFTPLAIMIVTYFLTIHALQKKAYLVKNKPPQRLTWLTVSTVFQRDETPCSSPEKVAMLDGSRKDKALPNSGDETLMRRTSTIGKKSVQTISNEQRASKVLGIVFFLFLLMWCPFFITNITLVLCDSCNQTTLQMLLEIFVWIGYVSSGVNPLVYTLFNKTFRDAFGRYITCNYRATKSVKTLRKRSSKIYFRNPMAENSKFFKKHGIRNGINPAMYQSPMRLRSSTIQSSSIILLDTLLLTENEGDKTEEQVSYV

As a reminder, the Ki is the dissociation constant of the complex between target and ligand, obtained from inhibition or displacement. Take `C[C@H](N)Cc1cccc(C(F)(F)F)c1` [Norfenfluramine (+)]: the Ki in test [1] worked out at 27 nM; in test [2] it was 56 nM.

Take `C[C@@H](N)Cc1cccc(C(F)(F)F)c1` [l-norfenfluramine]: the Ki came to 65 nM in test [1] and 99 nM in test [2].
